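Briefly, cells in 96-well plates were exposed to five compound concentrations for 48 h, and endpoints were estimated by linear interpolation. At the GI50, growth is halved.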 Active and inactive are the calls of the source. No stated cut-off is given here; in the data, active = GI50 up to about 1.1 µM and inactive = higher.
Legend:
Test in all cases: NCI anticancer screen, dose series, 48 h
KM12 = tested on: KM12
NCI/ADR-RES = tested on: NCI/ADR-RES
Malme-3M = tested on: Malme-3M
HOP-62 = tested on: HOP-62
LOX IMVI = tested on: LOX IMVI
OVCAR-4 = tested on: OVCAR-4
OVCAR-3 = tested on: OVCAR-3
UACC-62 = tested on: UACC-62
SF-268 = tested on: SF-268
M14 = tested on: M14
OVCAR-5 = tested on: OVCAR-5
SF-539 = tested on: SF-539
NCI-H23 = tested on: NCI-H23
A498 = tested on: A498
SW-620 = tested on: SW-620
SNB-75 = tested on: SNB-75
SK-MEL-28 = tested on: SK-MEL-28
HOP-92 = tested on: HOP-92
HL-60 = tested on: HL-60

SMILES | GI50 (KM12) | GI50 (NCI/ADR-RES) | GI50 (Malme-3M) | GI50 (HOP-62) | GI50 (LOX IMVI) | GI50 (OVCAR-4) | GI50 (OVCAR-3) | GI50 (UACC-62) | GI50 (SF-268) | GI50 (M14) | GI50 (OVCAR-5) | GI50 (SF-539) | GI50 (NCI-H23) | GI50 (A498) | GI50 (SW-620) | GI50 (SNB-75) | GI50 (SK-MEL-28) | GI50 (HOP-92) | GI50 (HL-60)
CN(C)CCCN1c2ccccc2CCc2cc([N+](=O)[O-])ccc21 | 26.4 µM (inactive) | 26.9 µM (inactive) | 18.8 µM (inactive) | 21.8 µM (inactive) | 19.1 µM (inactive) | 24.4 µM (inactive) | 20 µM (inactive) | 14.5 µM (inactive) | 20 µM (inactive) | 18.9 µM (inactive) | 25.5 µM (inactive) | 24.1 µM (inactive) | 26.5 µM (inactive) | 25.5 µM (inactive) | – | – | – | – | –
Clc1ccc2[nH]c(CC3CCCC3)nc2c1 | 14.5 µM (inactive) | 13.8 µM (inactive) | 25.5 µM (inactive) | 15.6 µM (inactive) | 15.8 µM (inactive) | 14.9 µM (inactive) | 6 µM (inactive) | 15.8 µM (inactive) | 19.3 µM (inactive) | 18.3 µM (inactive) | 24.5 µM (inactive) | 21.4 µM (inactive) | 15.1 µM (inactive) | – | 22.4 µM (inactive) | 24.4 µM (inactive) | 22.8 µM (inactive) | 12.9 µM (inactive) | –
O=C(Cc1ccc([N+](=O)[O-])cc1)OCC#CCOC(=O)Cc1ccc([N+](=O)[O-])cc1 | > 10 µM (inactive) | > 10 µM (inactive) | > 10 µM (inactive) | – | > 10 µM (inactive) | > 10 µM (inactive) | > 10 µM (inactive) | > 10 µM (inactive) | > 10 µM (inactive) | > 10 µM (inactive) | > 10 µM (inactive) | > 10 µM (inactive) | > 10 µM (inactive) | – | > 10 µM (inactive) | > 10 µM (inactive) | – | > 10 µM (inactive) | > 10 µM (inactive)
C=CCSC1=N/C(=C\c2cccs2)C(=O)N1CC=C | 40 µM (inactive) | 75.2 µM (inactive) | > 100 µM (inactive) | > 100 µM (inactive) | 46.1 µM (inactive) | 38.6 µM (inactive) | > 100 µM (inactive) | 63.2 µM (inactive) | > 100 µM (inactive) | 54.5 µM (inactive) | > 100 µM (inactive) | > 100 µM (inactive) | 94.8 µM (inactive) | 26.4 µM (inactive) | 82.2 µM (inactive) | – | > 100 µM (inactive) | 12.9 µM (inactive) | –
CC(C)C(=O)CC(Sc1ccc(N)cc1)c1ccccc1 (stereo not drawn) | 22.5 µM (inactive) | 33.7 µM (inactive) | 35.1 µM (inactive) | 37.1 µM (inactive) | 16.6 µM (inactive) | – | 27.6 µM (inactive) | 19 µM (inactive) | 28.5 µM (inactive) | 30.4 µM (inactive) | 29.4 µM (inactive) | 30.5 µM (inactive) | 21.9 µM (inactive) | 36.2 µM (inactive) | 16.9 µM (inactive) | 32.6 µM (inactive) | 30.8 µM (inactive) | – | 16.2 µM (inactive)
O=[N+]([O-])c1ccc2c(c1)nc1n2C(c2c(F)cccc2F)SC1 (stereo not drawn) | > 100 µM (inactive) | > 100 µM (inactive) | > 100 µM (inactive) | > 100 µM (inactive) | > 100 µM (inactive) | > 100 µM (inactive) | > 100 µM (inactive) | > 100 µM (inactive) | > 100 µM (inactive) | > 100 µM (inactive) | > 100 µM (inactive) | > 100 µM (inactive) | > 100 µM (inactive) | – | > 100 µM (inactive) | 84.7 µM (inactive) | > 100 µM (inactive) | 62.1 µM (inactive) | > 100 µM (inactive)
CC[C@H]1C=CCC[C@@]2(C[C@@H]3CC[C@@H]4[C@H](C(=O)OCCCCCCCCCCCCCCCC(=O)N(CCCN)C[C@@H](O)CCN)[C@]5(CCC[C@@H](C)O5)NC(=[N+]34)N2)O1 | 0.447 µM (active) | 0.733 µM (active) | 0.245 µM (active) | 1.13 µM (inactive) | 0.248 µM (active) | 0.474 µM (active) | 0.887 µM (active) | 0.0678 µM (active) | 0.544 µM (active) | 0.0249 µM (active) | 0.083 µM (active) | 0.556 µM (active) | 0.92 µM (active) | 0.625 µM (active) | 0.352 µM (active) | – | 1.27 µM (inactive) | 0.158 µM (active) | 0.318 µM (active)
CCN(CC)C(=S)N/N=C/c1cc(OC)ccc1O | 1.7 µM (inactive) | 2.58 µM (inactive) | 4.23 µM (inactive) | 7.5 µM (inactive) | 2.32 µM (inactive) | 3.56 µM (inactive) | 2.1 µM (inactive) | 4.25 µM (inactive) | 1.87 µM (inactive) | 3.69 µM (inactive) | 57.5 µM (inactive) | 6.97 µM (inactive) | 7.98 µM (inactive) | 2.02 µM (inactive) | 8.28 µM (inactive) | 19.4 µM (inactive) | 3.72 µM (inactive) | – | 2.46 µM (inactive)
Cc1ccc2oc3c(c(Br)c(Br)n3C)c(=O)c2c1 | > 100 µM (inactive) | 20.4 µM (inactive) | 24.7 µM (inactive) | 17 µM (inactive) | 31.3 µM (inactive) | 51.5 µM (inactive) | 19.6 µM (inactive) | 19.6 µM (inactive) | 29.4 µM (inactive) | 31.3 µM (inactive) | 41.6 µM (inactive) | 20 µM (inactive) | 19.5 µM (inactive) | 20.9 µM (inactive) | > 100 µM (inactive) | – | > 100 µM (inactive) | 18.1 µM (inactive) | > 100 µM (inactive)
COc1ccc2c(c1)[C@@]13CCCC[C@H]1[C@@H](C2)N(C)CC3=O | 18.1 µM (inactive) | 26.9 µM (inactive) | 18.5 µM (inactive) | > 100 µM (inactive) | 16.9 µM (inactive) | 16.1 µM (inactive) | 17.4 µM (inactive) | 16.9 µM (inactive) | 17.2 µM (inactive) | 16.1 µM (inactive) | 17.3 µM (inactive) | – | 17.5 µM (inactive) | – | – | – | 16.1 µM (inactive) | 13.6 µM (inactive) | 8.04 µM (inactive)
COC(C)(C)/C=C/c1[nH]c2ccccc2c1CC(=O)NCCc1cn(C(c2ccccc2)(c2ccccc2)c2ccccc2)cn1 | 4.22 µM (inactive) | 5.12 µM (inactive) | 3.76 µM (inactive) | 5.92 µM (inactive) | 4.82 µM (inactive) | 4.9 µM (inactive) | 4.92 µM (inactive) | 6.44 µM (inactive) | 7.91 µM (inactive) | 4.53 µM (inactive) | 3.66 µM (inactive) | 4.13 µM (inactive) | 4.41 µM (inactive) | 3.25 µM (inactive) | 4.23 µM (inactive) | – | 9.77 µM (inactive) | 5.33 µM (inactive) | 2.92 µM (inactive)
Clc1cc2nc(C3CCCCO3)[nH]c2cc1Cl (stereo not drawn) | 10.6 µM (inactive) | 12.1 µM (inactive) | 38.5 µM (inactive) | 64.7 µM (inactive) | 20.3 µM (inactive) | 34.4 µM (inactive) | 5.09 µM (inactive) | 24.5 µM (inactive) | 27.9 µM (inactive) | 28.5 µM (inactive) | > 63.1 µM (inactive) | 26.8 µM (inactive) | 18 µM (inactive) | – | 19.6 µM (inactive) | 15.2 µM (inactive) | > 60.3 µM (inactive) | 35.7 µM (inactive) | 4.78 µM (inactive)
COc1c(-c2nc3ccc(N4CCN(C)CC4)nc3[nH]2)cc(OC)c2c1nc(COC(C)=O)n2C | 39.4 µM (inactive) | > 100 µM (inactive) | > 100 µM (inactive) | > 100 µM (inactive) | > 100 µM (inactive) | 89.9 µM (inactive) | > 100 µM (inactive) | > 100 µM (inactive) | > 100 µM (inactive) | > 100 µM (inactive) | > 100 µM (inactive) | – | > 100 µM (inactive) | > 100 µM (inactive) | – | – | – | > 100 µM (inactive) | –
CC(=O)NC1C(OCC(=O)NC(C)C(=O)NC(CCC(=O)NCCCCCNc2ccc([N+](=O)[O-])c3[nH]c4ccccc4c(=O)c23)C(N)=O)C(O)C(CO)OC1(C)OCc1ccccc1 (stereo not drawn) | > 50 µM (inactive) | > 50 µM (inactive) | 12 µM (inactive) | 14.8 µM (inactive) | > 50 µM (inactive) | > 50 µM (inactive) | > 50 µM (inactive) | > 50 µM (inactive) | 14.5 µM (inactive) | > 50 µM (inactive) | > 50 µM (inactive) | > 50 µM (inactive) | > 50 µM (inactive) | > 50 µM (inactive) | > 50 µM (inactive) | 24.8 µM (inactive) | – | – | –
COc1cc2oc(-c3ccc(O)cc3)cc(=O)c2c(OC)c1O | – | > 100 µM (inactive) | > 100 µM (inactive) | 29.2 µM (inactive) | 60.5 µM (inactive) | > 100 µM (inactive) | 80.9 µM (inactive) | 99.5 µM (inactive) | 37.8 µM (inactive) | > 100 µM (inactive) | > 100 µM (inactive) | > 100 µM (inactive) | > 100 µM (inactive) | – | > 100 µM (inactive) | 14.5 µM (inactive) | > 100 µM (inactive) | 27.9 µM (inactive) | 21.2 µM (inactive)
CCn1cc(C(=O)O)c(=O)c2ccc(C)nc21 [NALIDIXIC ACID] | > 100 µM (inactive) | > 100 µM (inactive) | > 100 µM (inactive) | > 100 µM (inactive) | > 100 µM (inactive) | > 100 µM (inactive) | > 100 µM (inactive) | – | > 100 µM (inactive) | > 100 µM (inactive) | > 100 µM (inactive) | > 100 µM (inactive) | > 100 µM (inactive) | – | > 100 µM (inactive) | 97.3 µM (inactive) | > 100 µM (inactive) | 26.9 µM (inactive) | > 100 µM (inactive)

From ChEMBL document CHEMBL1201862, “PubChem BioAssay data set” (2004)
